The data set concerns the target T1, UGT1A9 (Homo sapiens, UniProt O60656).
T1 sequence (O60656 26-530): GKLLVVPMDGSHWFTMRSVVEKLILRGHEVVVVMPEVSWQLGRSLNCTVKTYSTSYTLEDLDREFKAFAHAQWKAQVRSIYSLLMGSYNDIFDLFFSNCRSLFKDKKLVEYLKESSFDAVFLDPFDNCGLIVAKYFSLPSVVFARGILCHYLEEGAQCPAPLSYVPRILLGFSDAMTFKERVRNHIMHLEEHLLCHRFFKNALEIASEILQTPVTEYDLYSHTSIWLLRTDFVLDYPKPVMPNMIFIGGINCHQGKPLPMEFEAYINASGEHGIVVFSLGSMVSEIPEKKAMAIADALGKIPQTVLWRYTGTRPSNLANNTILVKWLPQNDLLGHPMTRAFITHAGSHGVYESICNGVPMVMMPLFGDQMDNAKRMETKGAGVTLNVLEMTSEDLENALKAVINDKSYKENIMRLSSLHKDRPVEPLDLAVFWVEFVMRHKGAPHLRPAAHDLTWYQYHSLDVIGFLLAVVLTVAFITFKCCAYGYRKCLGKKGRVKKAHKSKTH
As to the kind of experiment: Kinetic profiling of glucuronidation by expressed human UGT1A9. The following applies: for Log (CLint) (Actual): log of experimental CLint (μl/mg/min).

Molecules are shown by their SMILES. Several values for one entry are separate records, joined by “and”; a condition that tells them apart may be missing. Equal entries are not always repeated.

In the case of `O=C(CCc1ccc(O)cc1)c1c(O)cc(O)cc1O` [7.a, Phloretin], the “Log (CLint) (Actual)” value is listed as 2.87. Further, for the setting “listed as 7.b”, the “Log (CLint) (Actual)” value is reported as 3.17. Turning to `N#C/C(=C\c1ccc(O)c(O)c1)C(=O)NCc1ccccc1` [23.a, Tyrphostin B42], the Vmax (as a rule, the top rate of the reaction or transport when substrate is in excess) (pH 7.4) was 3677 pmol/mg/min and 2008 pmol/mg/min. `O=c1cc(-c2ccc(O)c(O)c2)oc2cc(O)ccc12` [41.a, 7,3′,4′-Trihydroxyflavone]: the “Log (CLint) (Actual)” value came to 3.08. For the same compound, the “Log (CLint) (Actual)” value (listed as 41.b) is 2.48. For the same compound, where the note is “listed as 41.c”, the “Log (CLint) (Actual)” value was 2.11.

Take `O=c1cc(-c2ccc(O)c(O)c2)oc2cc(O)cc(O)c12` [56.a, Luteolin]: the “Log (CLint) (Actual)” value was found to be 3.58. Moreover, the “Log (CLint) (Actual)” value (listed as 56.b) is listed as 3.32. Consider `COc1cc(-c2oc3cc(O)ccc3c(=O)c2O)cc(OC)c1OC` [67.a, 3,7-Dihydroxy-3′,4′,5′-trimethoxyflavone], for which the “Log (CLint) (Actual)” value is recorded as 3.66. On to `O=c1c(O)c(-c2ccccc2)oc2cc(O)ccc12` [68.a, 3,7-Dihydroxyflavone], for which the “Log (CLint) (Actual)” value turned out to be 4.32. The “Log (CLint) (Actual)” value (listed as 68.b) was found to be 3.13. As for `COc1ccc(-c2oc3cc(O)ccc3c(=O)c2O)cc1OC` [69.a, 3,7-Dihydroxy-3′,4′-dimethoxyflavone], for the setting “listed as 69.b”, the “Log (CLint) (Actual)” value was 1.00.

In the case of `O=c1c(O)c(-c2ccc(O)c(O)c2)oc2cc(O)ccc12` [84.a, Fisetin], the “Log (CLint) (Actual)” value is given as 3.38. In addition, where the note is “listed as 84.b”, the “Log (CLint) (Actual)” value was found to be 3.55. For the same compound, the “Log (CLint) (Actual)” value (listed as 84.c) was found to be 3.49. Consider `O=c1c(O)c(-c2ccc(O)cc2)oc2cc(O)cc(O)c12` [88.a, Kaempferol], for which the “Log (CLint) (Actual)” value was found to be 3.78. In addition, the “Log (CLint) (Actual)” value (listed as 88.b) was found to be 2.34. Regarding `O=c1c(O)c(-c2cc(O)c(O)c(O)c2)oc2cc(O)cc(O)c12` [90.a, Myricetin], the “Log (CLint) (Actual)” value was 2.90. The “Log (CLint) (Actual)” value (listed as 90.b) was found to be 3.36. In addition, the “Log (CLint) (Actual)” value (listed as 90.c) is 3.69.

Turning to `O=c1c(O)c(-c2ccc(O)c(O)c2)oc2cc(O)cc(O)c12` [91.a, Quercetin], the “Log (CLint) (Actual)” value is given as 3.97. Moreover, the “Log (CLint) (Actual)” value (listed as 91.b) was 3.32. In addition, the “Log (CLint) (Actual)” value (listed as 91.c) came to 3.65. For `O=c1c(O)c(-c2ccc(O)cc2)oc2cc(O)ccc12` [92.a, Resokaempferol], the “Log (CLint) (Actual)” value was determined as 3.86. Besides, the “Log (CLint) (Actual)” value (listed as 92.b) came to 2.63.

On to `COc1cc(-c2oc3cc(O)cc(O)c3c(=O)c2O)cc(OC)c1O` [94.a, Syringetin], for which the “Log (CLint) (Actual)” value is on record as 3.87. The “Log (CLint) (Actual)” value (listed as 94.b) turned out to be 2.26. For `O=C(O)/C=C/c1ccc(O)c(O)c1` [97.a, Caffeic Acid], the “Log (CLint) (Actual)” value amounted to 1.04. In addition, the “Log (CLint) (Actual)” value (listed as 97.b) is listed as 0.30. On to `Nc1ccc(C(=O)O)c(O)c1` [aminosalicylic acid, reference compound], for which the “glucuronide metabolite formation on incubation with UGT1A9 (non-substrate)” value (incubating compound with UGT1A9) is “no metabolite can be detected”. As for `Oc1cc(O)c2c(c1)O[C@H](c1cc(O)c(O)c(O)c1)[C@H](O)C2` [compound 2, (−)-Epigallocatechin], the “Log (CLint) (Actual)” value is reported as 1.58. On to `O=C(/C=C/c1ccccc1O)c1ccccc1` [compound 3, 2-Hydroxychalcone], for which the “Log (CLint) (Actual)” value worked out at 3.38. For the compound `O=C(/C=C/c1ccc(O)cc1)c1ccccc1` [compound 4, 4-Hydroxychalcone], the “Log (CLint) (Actual)” value is recorded as 1.53. As for `O=C(/C=C/c1ccccc1)c1ccc(O)cc1` [compound 6, 4′-Hydroxychalcone], the “Log (CLint) (Actual)” value is 2.29.

As to `O=c1ccoc2cc(O)ccc12` [compound 8, 7-Hydroxychromone], the “Log (CLint) (Actual)” value was found to be 0.91. With `O=c1oc2cc(O)ccc2c(-c2ccccc2)c1-c1ccccc1` [compound 9, 3,4-Diphenyl-7-hydroxycoumarin], the “Log (CLint) (Actual)” value was determined as 1.61. For `Cc1cc(=O)oc2cc(O)ccc12` [compound 10, 4-Methylumbelliferone], the “Log (CLint) (Actual)” value is 2.48.

Take `Cc1ccc2oc(=O)cc(O)c2c1` [compound 11, 4-Hydroxy-6-methylcoumarin]: the “Log (CLint) (Actual)” value is recorded as 0.59.

`COc1cc2oc(=O)cc(-c3ccccc3)c2cc1O` [compound 12, 6-Hydroxy-7-methoxyl-4-phenylcoumarin]: the “Log (CLint) (Actual)” value was determined as 1.07.

Turning to `CC(=O)CC(c1ccccc1)c1c(O)c2cccc(O)c2oc1=O` (centres unmarked) [compound 13, 8-Hydroxywarfarin], the “Log (CLint) (Actual)” value turned out to be 1.40.

Regarding `COc1cc2ccc(=O)oc2cc1O` [compound 14, Scopoletin], the “Log (CLint) (Actual)” value turned out to be 2.28.

As to `COc1cc(/C=C/C(=O)CC(=O)/C=C/c2ccc(O)c(OC)c2)ccc1O` [compound 15, Curcumin], the “Log (CLint) (Actual)” value was 1.74. Same read-out and setting: under `COc1cc(/C=C/C(O)=C/C(=O)/C=C/c2ccc(O)cc2)ccc1O` [compound 16, Demethoxycurcumin] stands 1.14. As to `O=C(/C=C/c1ccc(O)cc1)CC(=O)/C=C/c1ccc(O)cc1` [compound 17, Bisdemethoxycurcumin], the “Log (CLint) (Actual)” value is reported as 0.90. Turning to `CC/C(=C(\c1ccc(O)cc1)c1ccc(OCCNC)cc1)c1ccccc1` [compound 19, Endoxifen], the “Log (CLint) (Actual)” value came out at 0.82.

`O=C1OC[C@H](Cc2cccc(O)c2)[C@H]1Cc1cccc(O)c1` [compound 20, Enterolactone]: the “Log (CLint) (Actual)” value was determined as 1.96. On to `O=C(c1ccc(OCCN2CCCCC2)cc1)c1c(-c2ccc(O)cc2)sc2cc(O)ccc12` [compound 22, Raloxifene, reference compound], for which the “Log (CLint) (Actual)” value is recorded as 1.31. Consider `O=C1C[C@@H](c2ccc(O)cc2)Oc2cc(O)cc(O)c21` [compound 27, Narigenin], for which the “Log (CLint) (Actual)” value came to 3.18. In addition, the Michaelis-Menten constant (Km) – broadly, the concentration of substrate that gives half-maximal velocity – (human, expressed human UGT1A9 (Supersomes), pH 7.4) turned out to be 3.34 µM. In the case of `O=c1cc(-c2ccccc2O)oc2ccccc12` [compound 28, 2′-Hydroxyflavone], the “Log (CLint) (Actual)” value was found to be 2.27. With `COc1ccc(-c2oc3cc(O)cc(O)c3c(=O)c2OC)cc1O` [compound 29, 3,4′-Dimethoxy-5,7,3′-trihydroxyflavone], the “Log (CLint) (Actual)” value amounted to 3.66. On to `COc1ccc(-c2oc3cc(O)cc(O)c3c(=O)c2OC)cc1OCc1ccccc1` [compound 30, 3′-Benzyloxy-5,7-dihydroxy-3,4′-dimethoxyflavone], for which the “Log (CLint) (Actual)” value was 3.22.

For the compound `O=c1cc(-c2cccc(O)c2)oc2ccccc12` [compound 31, 3′-Hydroxyflavone], the “Log (CLint) (Actual)” value was determined as 2.66. Turning to `O=c1cc(-c2ccc(O)cc2)oc2ccccc12` [compound 32, 4′-Hydroxyflavone], the “Log (CLint) (Actual)” value worked out at 1.83. `COc1cc(-c2cc(=O)c3c(O)cc(O)cc3o2)cc(OC)c1OC` [compound 33, 5,7-Dihydroxy-3′,4′,5′-trimethoxyflavone]: the “Log (CLint) (Actual)” value is 2.93.

In the case of `O=c1cc(-c2ccc(O)c(O)c2)oc2ccc(O)cc12` [compound 35, 6,3′,4′-Trihydroxyflavone], the “Log (CLint) (Actual)” value was determined as 3.54. On to `O=c1cc(-c2ccccc2)oc2cc(O)c(O)cc12` [compound 37, 6,7-Dihydroxyflavone], for which the “Log (CLint) (Actual)” value was found to be 2.96. With `O=c1cc(-c2ccccc2)oc2ccc(O)cc12` [compound 38, 6-Hydroxyflavone], the “Log (CLint) (Actual)” value amounted to 1.53. Turning to `COc1c(O)cc2oc(-c3ccc(O)c(O)c3)cc(=O)c2c1O` [compound 39, 6-Methoxyluteolin], the “Log (CLint) (Actual)” value turned out to be 3.22.

The values are drawn from paper PMC3409642 (Pharmaceutical research, 2012).
